We go through 8 molecules from PubChem BioAssay (NCI).

Test in all cases: inhibition of tumour cell growth, NCI panel, 48 h
In experiment [1] the test system is CAKI-1 renal.
For experiment [2], the system named is NCI-H226 lung.
Experiment [3] relates to NCI/ADR-RES ovarian.
In experiment [4] the test system is SF-268 CNS.
Experiment [5] relates to SK-MEL-2 melanoma.
Experiment [6] concerns SN12C renal.
Experiment [7] deals with SW-620 colon.
Experiment [8] has as its system UACC-257 melanoma.
Experiment [9] relates to UACC-62 melanoma.
The test system of experiment [10] is UO-31 renal.

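All cell lines were grown in 96-well plates and treated with compound for 48 hours. Abbreviation: GI50, concentration required for 50% inhibition of growth. TGI: concentration producing complete growth inhibition.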 Where only a bound is given, the exact number is not on record here.

For `C[C@@]1(O)C2CC3CC1(c1ccccc1)CC(/C3=N/O)/C2=N\O` (stereo not given in full), the TGI in experiment [1], in experiment [2], in [3], in [4], in [5] and in [6] was > 100 µM in each case. Also, the TGI in experiment [7], in experiment [8], in [9] and in experiment [10] was > 100 µM throughout.

On to `COC(=O)C1=C(O)C(C(=O)OC)C2CC(=O)CC1C2(C)C` (stereo not given), for which the TGI in experiment [1], in experiment [2], in experiment [3], in experiment [4], in experiment [5] and in [6] was > 100 µM throughout. The TGI in experiment [7], in [8], in [9] and in experiment [10] was > 100 µM in each case.

On to `Cc1ccc2cnc(N)c(C#Cc3cc(C(=O)Nc4ccc(CN5CCN(C)CC5)c(C(F)(F)F)c4)cnc3C)c2c1`, for which the GI50 in experiment [1] is 0.476 µM; in [2] it was 0.538 µM; in experiment [3] it was 1.05 µM; in [4], 0.559 µM; in [5] it was 0.761 µM; in [6], 0.317 µM. For the same molecule, the GI50 is 0.344 µM in experiment [7], 0.651 µM in [8], 0.234 µM in experiment [9] and 0.621 µM in [10]. The TGI was found to be 1.1 µM in experiment [1]; 1.74 µM in experiment [2]; 2.9 µM in experiment [3]; 1.27 µM in experiment [4]; 1.73 µM in [5]; 1.06 µM in experiment [6]. The TGI in [7] is 1.07 µM; in experiment [8], 1.48 µM; in experiment [9], 1.08 µM; in [10], 1.3 µM.

Regarding `COc1ccc2c(c1)C(=O)/C(=C/c1cccc(OCC(=O)c3ccccc3)c1)CC2`, the GI50 was 13 µM in experiment [1]; 28.6 µM in experiment [2]; 5.42 µM in experiment [3]; 45.2 µM in experiment [4]; 13.4 µM in [5]; 61 µM in experiment [6]. Moreover, the GI50 is 4.88 µM in experiment [7], 8.56 µM in experiment [8], 12.8 µM in experiment [9] and 29.2 µM in experiment [10]. For the same molecule, the TGI in [1] was > 100 µM; in experiment [2] it was > 100 µM; in experiment [3], 93.9 µM; in [4], > 100 µM; in [5] it was > 100 µM; in experiment [6] it was > 100 µM. For the same molecule, the TGI in [7], in [8], in experiment [9] and in experiment [10] was > 100 µM each time.

With `CCOc1ccccc1CCN=C1NC(=O)/C(=C/c2ccc3ncccc3c2)S1`, the GI50 in experiment [1] was 0.75 µM; in [2], 4.32 µM; in experiment [3] it was 1.28 µM; in experiment [4], 1.35 µM; in [5] it was 4.64 µM; in experiment [6], 1.61 µM. The GI50 in [7] is 0.712 µM; in experiment [8], 10.5 µM; in experiment [9], 1.48 µM; in [10] it was 1.31 µM. Also, the TGI was > 7.13 µM in experiment [1]; > 25 µM in experiment [2]; > 22.7 µM in experiment [3]; > 25 µM in experiment [4]; 11.5 µM in experiment [5]; > 25 µM in [6]. The TGI in experiment [7] is 5.28 µM; in experiment [8] it was > 22.7 µM; in [9] it was 10.3 µM; in [10] it was 15.9 µM.

As for `O=S(=O)(Nc1ccc(Br)cc1)c1ccc(-c2cnc(C3CC3)o2)cc1`, the GI50 is 1.07 µM in experiment [1]; 6.26 µM in experiment [2]; 1 µM in [3]; 5.05 µM in [4]; 4.2 µM in experiment [5]; 4.41 µM in experiment [6]. Moreover, the GI50 in experiment [7] was 0.785 µM; in experiment [8], 10.5 µM; in [9], 1.39 µM; in experiment [10], 2.41 µM. In addition, the TGI in [1] came out at 15.1 µM; in experiment [2] it was 25 µM; in experiment [3], 10.4 µM; in experiment [4] it was 22.4 µM; in experiment [5] it was 20.3 µM; in experiment [6], 18.2 µM. Moreover, the TGI in experiment [7] was found to be 12.3 µM; in [8], 27.5 µM; in experiment [9] it was 13.7 µM; in experiment [10], 15.7 µM.

As for `c1ccc(-c2nc(-c3ccccn3)nc(-c3ccccn3)n2)nc1`, the GI50 was 3.88 µM in experiment [1]; 44.9 µM in experiment [2]; 6.37 µM in experiment [3]; 32.4 µM in [4]; 63.3 µM in [5]; 56.6 µM in experiment [6]. In addition, the GI50 was 28 µM in experiment [7], 39.9 µM in [8], 28 µM in experiment [9] and 3.18 µM in experiment [10]. Further, the TGI in experiment [1] is 34.3 µM; in [2], > 100 µM; in experiment [3] it was > 100 µM; in [4], > 100 µM; in [5], > 100 µM; in experiment [6], > 100 µM. The TGI in [7], in experiment [8], in [9] and in experiment [10] was > 100 µM in each case.

On to `COc1cc(C)ccc1C(=O)c1ccc(C)cc1OC`, for which the GI50 in experiment [1] is 2.3 µM; in [2], 4.45 µM; in experiment [3] it was 1.31 µM; in [4], 7.92 µM; in experiment [5], 2.45 µM; in [6], 15.7 µM. Also, the GI50 in experiment [7] is 1.41 µM; in experiment [8] it was 54.8 µM; in [9], 4.45 µM; in experiment [10], 5.74 µM. The TGI is 92.3 µM in experiment [1]; 72.7 µM in experiment [2]; 8.14 µM in experiment [3]; > 100 µM in experiment [4]; > 100 µM in experiment [5]; > 100 µM in [6]. The TGI in [7], in [8], in experiment [9] and in experiment [10] was > 100 µM in each case.
